Assay results: PubChem BioAssay (NCI)
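Exposure lasted 48 hours, with cells grown in 96-well plates and compounds tested at five concentrations. Here, GI50 denotes the concentration required for 50% inhibition of growth. TGI: total growth inhibition.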

Key:
Assay in all cases: growth of human tumour cells (NCI), 48 h
[1] = tested on: OVCAR-8 ovarian
[2] = tested on: MDA-MB-231 breast
[3] = tested on: KM12 colon
[4] = tested on: SF-295 CNS
[5] = tested on: SNB-75 CNS
[6] = tested on: NCI-H522 lung
[7] = tested on: OVCAR-5 ovarian
[8] = tested on: UACC-257 melanoma
[9] = tested on: SK-OV-3 ovarian
[10] = tested on: HCC-2998 colon

SMILES | TGI [1] [µM] | TGI [2] [µM] | TGI [3] [µM] | TGI [4] [µM] | TGI [5] [µM] | TGI [6] [µM] | TGI [7] [µM] | TGI [8] [µM] | TGI [9] [µM] | TGI [10] [µM] | GI50 [1] [µM] | GI50 [10] [µM] | GI50 [2] [µM] | GI50 [3] [µM] | GI50 [4] [µM] | GI50 [6] [µM] | GI50 [7] [µM] | GI50 [8] [µM] | GI50 [9] [µM] | GI50 [5] [µM]
COc1ccc(NCc2c(O)ccc3ccccc23)cc1 | 29.2 | > 100 | > 100 | > 100 | > 100 | 28 | 49.3 | 44.5 | > 100 |  |  |  |  |  |  |  |  |  |  | 
N#CNc1nc(C(=O)Nc2ccc(Cl)cc2)cc(-c2ccccc2)n1 | > 100 |  | > 100 | > 100 | > 100 |  | > 100 | > 100 |  | > 100 |  |  |  |  |  |  |  |  |  | 
CN(C)CCC(=O)NCc1c2nc3ccccc3nc2n2ccccc12 | > 100 | > 100 | > 100 | > 100 |  | > 100 | > 100 | > 100 | > 100 | > 100 | 84.8 | 33.8 | 24.7 | 26 | 61.1 | 66.1 | > 100 | 73.1 | > 100 | 
CC(=O)OC1C/C(C)=C/[C@H](O)CC(C)/C=C/[C@@]2(C)CCC(C(C)(C)O)C12 (some centres undefined) | > 100 |  | > 100 | > 100 | > 100 |  | > 100 | > 100 | > 100 | > 100 |  |  |  |  |  |  |  |  |  | 
COc1ccc(Cn2c3c(c4c(O)cccc42)C(=O)c2ccccc2-3)cc1 | 13.2 | 25.4 | 22 | 26.2 |  | 93.1 | 21.6 | 27.2 | 28.1 | 21.7 | 3.08 | 8.26 | 12.8 | 7.65 | 12.6 | 12.3 | 10 | 11.7 | 14.9 | 
O=C(O)C1=C(Cl)c2ccccc2S1(=O)=O | > 100 |  | > 100 | > 100 | > 100 | 40.7 | > 100 | > 100 | > 100 | > 100 |  |  |  |  |  |  |  |  |  | 
Cc1cccc(NC(=O)Cc2nc3ccccc3s2)c1C | > 100 |  | > 100 | > 100 | > 100 | > 100 | > 100 | > 100 | > 100 | > 100 |  |  |  |  |  |  |  |  |  | 
CN(/C(=N\O)c1ccccc1)c1ccccc1 | 64.9 |  | > 100 | 43.4 | 40.8 | 40.3 | > 100 | > 100 |  | 73.5 |  |  |  |  |  |  |  |  |  | 
O=C(Nc1cc([N+](=O)[O-])cc([N+](=O)[O-])c1)OC1C2CCC1C1OC1C2 (centres undefined) | > 50 |  | > 50 | > 50 | > 50 | > 50 | > 50 | > 50 | > 50 | > 50 |  |  |  |  |  |  |  |  |  | 
CC(C)[C@H](O)C(=O)N[C@H]1Cc2ccc3c(c2)[C@]24C5=C(N=C(O5)[C@H](C(C)C)NC1=O)c1nc(Cl)c(o1)-c1c(Cl)[nH]c5cccc(c15)-c1cccc2c1N[C@H]4O3 |  |  |  | 3.87 |  | 0.00562 | > 10 | 3.27 | > 10 |  |  | < 0.001 | 0.00178 |  | < 0.001 |  | 4.26 | < 0.001 |  | 
CN(C)C(=S)/N=c1\ssc(=S)n1Cc1ccccn1 | > 100 |  | > 48 | > 65.7 | > 56.6 | 4.17 | > 100 | > 100 | > 100 | > 100 |  |  |  |  |  |  |  |  |  | 
COc1ccc(CC(C#N)c2cc(OC)c(OC)c(OC)c2)cc1 (centres undefined) | 13 | 3.29 | 4.95 | 0.0783 | > 100 | 0.135 | > 96.9 | > 100 |  |  |  |  |  |  |  |  |  |  |  | 
O=C(Cc1nc2ccccc2s1)C(=O)Nc1ccc(Cl)cc1Cl | > 100 |  | > 100 | > 100 | > 100 |  | > 100 | > 100 | > 100 | > 100 |  |  |  |  |  |  |  |  |  | 
O=C(O)CCc1nc(-c2ccccc2)c(-c2ccccc2)o1 | > 100 | > 100 | > 100 | > 100 | > 100 | > 100 | > 100 | > 100 | > 100 |  |  |  |  |  |  |  |  |  |  | 
N=C(N)Cn1cnc2ccccc21 | > 100 |  | > 100 | > 100 | > 100 | > 100 | > 100 | > 100 | > 100 | > 100 |  |  |  |  |  |  |  |  |  | 
CC(=O)[CH-]C(=O)c1ccccc1.CC(=O)[CH-]C(=O)c1ccccc1.CC12CC3(C)CC(C)(C1)CC([O-])(C2)C3.CC[O-].[Ti+4] | > 100 |  | 35.2 | > 100 | 29.4 | 44.6 |  | 76.1 | > 100 |  | 27.7 |  |  | 18.3 | 33.4 | 21.2 |  | 27.9 | 23.1 | 14.3
O/N=C1/C(=C/c2ccc(Cl)cc2)CCCC1C(NO)c1ccc(Cl)cc1 (centres undefined) | 55.3 |  | 40.6 | 36.4 | 39.5 | 62.8 |  | 31.6 | > 100 | 47.4 |  |  |  |  |  |  |  |  |  | 
C[n+]1ccc2[nH]c3ccccc3c2c1 | > 100 |  | > 100 | > 100 | > 100 | > 100 | > 100 | > 100 | > 100 | > 100 |  |  |  |  |  |  |  |  |  | 
O=C1C(Nc2cccc(O)c2)=C(Sc2ccc(Cl)cc2)C(=O)N1Cc1ccccc1 | 34.8 |  | 27.8 | 24.9 |  | > 100 | 55 |  | 30.6 | 7.23 | 6.03 | 2.94 |  | 10.6 | 7.5 | 21.3 | 21.1 |  | 12.6 | 
Cn1c(=O)c2[nH]cnc2n(CC(=O)O)c1=O | > 100 |  | > 100 |  | > 100 | > 100 | > 100 |  | > 100 |  |  |  |  |  |  |  |  |  |  | 
